Patent publication US7470711B2, “Piperidinyl substituted cyclohexane-1,4-diamines” (Janssen Pharmaceutica N.V., priority 2005, dated 2008)
pKi: −log10 of the molar value. Where a name gives a salt, the structure may show the parent alone. Read-outs that look alike come from different tables or passages of the source.

How the values were obtained:
α1a-AR = molecular target: T1, α1a-AR (Homo sapiens, UniProt P35348); experiment: α1-Adrenergic receptor radio-ligand binding assay, α1a subtype
T1 construct: expressed in transfected cells; host or cells: COS-7 cells (membranes)
T1 sequence (P35348 1-455 isoform P35348-4): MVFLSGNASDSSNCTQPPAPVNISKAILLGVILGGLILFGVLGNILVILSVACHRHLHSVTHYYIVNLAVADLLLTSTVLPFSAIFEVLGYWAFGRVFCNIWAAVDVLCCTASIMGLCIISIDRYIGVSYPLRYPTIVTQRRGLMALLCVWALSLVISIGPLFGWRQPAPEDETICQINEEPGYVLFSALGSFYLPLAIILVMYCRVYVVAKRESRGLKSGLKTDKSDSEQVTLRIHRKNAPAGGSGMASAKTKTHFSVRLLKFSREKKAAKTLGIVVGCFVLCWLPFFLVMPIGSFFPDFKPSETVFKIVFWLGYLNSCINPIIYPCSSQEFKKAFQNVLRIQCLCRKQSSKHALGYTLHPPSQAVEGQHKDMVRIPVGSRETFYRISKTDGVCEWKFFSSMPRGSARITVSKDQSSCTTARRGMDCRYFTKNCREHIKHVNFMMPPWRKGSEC
Method: (§1) Membranes were prepared from COS-7 cells (African Green monkey kidney SV40-transformed cells) that had been transfected with one of the three α1-AR subtypes (Genbank accession number for the α1a subtype: AF013261; Genbank accession number for the α1b subtype: NM000679; Genbank accession number for the α1d subtype: NM000678) using the following method: COS cells from ten 100 mm tissue culture plates were scraped into a 5 mL volume of TE (a mixture of 50 mM Tris-HCl, 5 mM EDTA, pH 7.4). […] The disrupted cells were centrifuged at 1000×g for 10 min at 4° C. Supernatants were centrifuged at 34,500×g for 20 min at 4° C. The membrane pellets were suspended in a 2 mL volume of TNE (a mixture of 50 mM Tris-HCl, 5 mM EDTA and 150 mM NaCl at pH 7.4). An aliquot of the membrane suspension was stored at −70° C. until use. The protein concentration was determined using the BioRad “DC” protein assay kit following membrane solubilization with Triton X-100.
(§2) Triplicate determinations of radio-ligand binding in the presence of increasing concentrations of testing compound were made. The reagents were added to 96-well polypropylene plate wells. […] The plate was incubated at rt for 1 hr. The contents of the wells were filtered through a glass filter (type C) (GF/C) membrane Unifilter plate (Packard Instruments) using the Packard Filtermate cell harvester. The filter plates were dried in a vacuum oven for 30 min at 40° C. 25 μL Microscint 20 liquid scintillation fluid (Packard Instuments) was added to each well. The radioactive content was analyzed in the TopCount microplate scintillation counter (Packard Instruments).

α1b-AR = molecular target: T2, α1b-AR (Homo sapiens, UniProt P35368); experiment: α1-Adrenergic receptor radio-ligand binding assay, α1b subtype
T2 construct: expressed in transfected cells; host or cells: COS-7 cells (membranes)
T2 sequence (P35368 1-520): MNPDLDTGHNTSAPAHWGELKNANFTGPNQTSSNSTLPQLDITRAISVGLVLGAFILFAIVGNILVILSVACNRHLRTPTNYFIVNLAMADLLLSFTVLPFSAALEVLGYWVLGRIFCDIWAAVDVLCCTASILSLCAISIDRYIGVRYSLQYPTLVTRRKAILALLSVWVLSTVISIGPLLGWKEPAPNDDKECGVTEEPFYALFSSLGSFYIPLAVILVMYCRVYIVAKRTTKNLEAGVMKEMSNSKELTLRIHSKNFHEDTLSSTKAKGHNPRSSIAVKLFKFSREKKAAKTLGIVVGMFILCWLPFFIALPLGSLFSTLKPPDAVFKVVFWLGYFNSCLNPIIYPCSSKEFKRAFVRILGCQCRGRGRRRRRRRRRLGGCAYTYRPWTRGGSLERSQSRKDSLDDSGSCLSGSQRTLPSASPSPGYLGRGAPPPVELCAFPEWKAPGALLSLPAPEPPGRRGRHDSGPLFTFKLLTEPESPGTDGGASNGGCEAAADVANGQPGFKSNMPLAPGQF
Method: as §1, §2

α1d-AR = molecular target: T3, α1d-AR (Homo sapiens, UniProt P25100); experiment: α1-Adrenergic receptor radio-ligand binding assay, α1d subtype
T3 construct: expressed in transfected cells; host or cells: COS-7 cells (membranes)
T3 sequence (P25100 1-572): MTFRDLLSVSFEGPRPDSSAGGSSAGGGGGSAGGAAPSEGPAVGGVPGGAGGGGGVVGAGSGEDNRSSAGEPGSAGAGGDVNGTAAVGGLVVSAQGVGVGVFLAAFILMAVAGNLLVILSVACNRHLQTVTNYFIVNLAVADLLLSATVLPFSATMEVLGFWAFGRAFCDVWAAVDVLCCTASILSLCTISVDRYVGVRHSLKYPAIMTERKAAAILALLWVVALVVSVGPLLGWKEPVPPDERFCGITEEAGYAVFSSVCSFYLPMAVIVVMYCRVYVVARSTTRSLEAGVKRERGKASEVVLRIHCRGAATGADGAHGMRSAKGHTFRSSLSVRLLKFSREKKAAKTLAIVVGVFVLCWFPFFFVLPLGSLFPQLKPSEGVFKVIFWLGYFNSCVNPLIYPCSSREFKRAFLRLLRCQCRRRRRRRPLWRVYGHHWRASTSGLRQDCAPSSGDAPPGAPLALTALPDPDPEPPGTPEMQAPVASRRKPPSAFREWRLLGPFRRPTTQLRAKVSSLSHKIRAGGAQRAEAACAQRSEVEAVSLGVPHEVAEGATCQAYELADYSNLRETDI
Method: as §1, §2

[1] = 125I-HEAT, membranes of COS-7 cells transfected with α1b subtype, rt 1 hr, read-out: Receptor Binding, Ki α1b-AR
[2] = 125I-HEAT, membranes of COS-7 cells transfected with α1d subtype, rt 1 hr, read-out: Receptor Binding, Ki α1d-AR
[3] = 125I-HEAT, membranes of COS-7 cells transfected with α1a subtype, rt 1 hr, read-out: Receptor Binding, Ki α1a-AR

Structure (SMILES)	pKi (α1a-AR)	pKi (α1b-AR; [1])	pKi (α1d-AR; [2])	melting point	pKi (α1b-AR)	pKi (α1d-AR)	pKi (α1a-AR; [3])
COc1ccc(S(=O)(=O)N[C@H]2CC[C@H](N3CCC(c4ccccc4OCC(F)F)CC3)CC2)cc1OC [Cpd 30, N-trans-(4-{4-[2-(2,2-difluoro-ethoxy)-phenyl]-piperidin-1-yl}-cyclohexyl)-3,4-dimethoxy-benzenesulfonamide]	7.52	6.17	7.07	197 °C			
O=S(=O)(N[C@H]1CC[C@@H](N2CCC(c3ccccc3OCC(F)(F)F)CC2)CC1)c1ccc2c(c1)OCCO2 [Cpd 13, 2,3-dihydro-benzo[1,4]dioxine-6-sulfonic acid cis-(4-{4-[2-(2,2,2-trifluoro-ethoxy)-phenyl]-piperidin-1-yl}-cyclohexyl)-amide]	8.40			190 °C	7.04	8.52	
O=S(=O)(N[C@H]1CC[C@H](N2CCC(c3ccccc3OCC(F)(F)F)CC2)CC1)c1cc(Cl)ccc1F [Cpd 20, 5-chloro-2-fluoro-N-trans-(4-{4-[2-(2,2,2-trifluoro-ethoxy)-phenyl]-piperidin-1-yl}-cyclohexyl)-benzenesulfonamide]	8.33	6.10	7.36	227 °C			
COc1ccc(Cl)cc1S(=O)(=O)N[C@H]1CC[C@@H](N2CCC(c3ccccc3OCC(F)(F)F)CC2)CC1 [Cpd 17, 5-chloro-2-methoxy-N-cis-(4-{4-[2-(2,2,2-trifluoro-ethoxy)-phenyl]-piperidin-1-yl}-cyclohexyl)-benzenesulfonamide]		6.67		200 °C		8.82	8.21
CC(C)Oc1ccccc1C1CCN([C@H]2CC[C@@H](NS(=O)(=O)c3ccc(F)c(F)c3)CC2)CC1 [Cpd 3, 3,4-difluoro-N-cis-{4-[4-(2-isopropoxy-phenyl)-piperidin-1-yl]-cyclohexyl}-benzenesulfonamide]		6.33	8.14	176 °C			8.52
O=S(=O)(N[C@H]1CC[C@H](N2CCC(c3ccccc3OCC(F)(F)F)CC2)CC1)c1cccc(OC(F)F)c1 [Cpd 24, 3-difluoromethoxy-N-trans-(4-{4-[2-(2,2,2-trifluoro-ethoxy)-phenyl]-piperidin-1-yl}-cyclohexyl)-benzenesulfonamide]		6.45	7.15	169 °C			7.92
COc1ccc(S(=O)(=O)N[C@H]2CC[C@@H](N3CCC(c4ccccc4OC(C)C)CC3)CC2)cc1OC (as salt: fumarate) [Cpd 1, N-cis-{4-[4-(2-isopropoxy-phenyl)-piperidin-1-yl]-cyclohexyl}-3,4-dimethoxy-benzenesulfonamide]				221 °C			
O=S(=O)(N[C@H]1CC[C@H](N2CCC(c3ccccc3OCC(F)(F)F)CC2)CC1)c1ccc(OC(F)F)cc1 [Cpd 26, 4-difluoromethoxy-N-trans-(4-{4-[2-(2,2,2-trifluoro-ethoxy)-phenyl]-piperidin-1-yl}-cyclohexyl)-benzenesulfonamide]	7.43	6.52	7.07	155 °C			
CC(C)Oc1ccccc1C1CCN([C@H]2CC[C@H](NS(=O)(=O)c3ccc(F)c(F)c3)CC2)CC1 [Cpd 4, 3,4-difluoro-N-trans-{4-[4-(2-isopropoxy-phenyl)-piperidin-1-yl]-cyclohexyl}-benzenesulfonamide]				239 °C		7.05	
O=S(=O)(N[C@H]1CC[C@@H](N2CCC(c3ccccc3OCC(F)(F)F)CC2)CC1)c1cccc(OC(F)F)c1 [Cpd 23, 3-difluoromethoxy-N-cis-(4-{4-[2-(2,2,2-trifluoro-ethoxy)-phenyl]-piperidin-1-yl}-cyclohexyl)-benzenesulfonamide]		6.58	8.23	105 °C			8.15
COc1ccc(S(=O)(=O)N[C@H]2CC[C@H](N3CCC(c4ccccc4OCCF)CC3)CC2)cc1OC [Cpd 28, N-trans-(4-{4-[2-(2-fluoro-ethoxy)-phenyl]-piperidin-1-yl}-cyclohexyl)-3,4-dimethoxy-benzenesulfonamide]		5.36	7.31	142 °C			7.16
O=S(=O)(N[C@H]1CC[C@@H](N2CCC(c3ccccc3OCC(F)(F)F)CC2)CC1)c1ccc(OC(F)F)cc1 [Cpd 25, 4-difluoromethoxy-N-cis-(4-{4-[2-(2,2,2-trifluoro-ethoxy)-phenyl]-piperidin-1-yl}-cyclohexyl)-benzenesulfonamide]		7.12	8.57	196 °C			8.27
COc1ccc(S(=O)(=O)N[C@H]2CC[C@@H](N3CCC(c4ccccc4OCCF)CC3)CC2)cc1OC [Cpd 27, N-cis-(4-{4-[2-(2-fluoro-ethoxy)-phenyl]-piperidin-1-yl}-cyclohexyl)-3,4-dimethoxy-benzenesulfonamide]		6.45	8.06	225 °C			7.96
O=S(=O)(N[C@H]1CC[C@@H](N2CCC(c3ccccc3OCC(F)(F)F)CC2)CC1)c1cc(Cl)ccc1F [Cpd 19, 5-chloro-2-fluoro-N-cis-(4-{4-[2-(2,2,2-trifluoro-ethoxy)-phenyl]-piperidin-1-yl}-cyclohexyl)-benzenesulfonamide]	8.24	6.74	9.01	204 °C			
O=S(=O)(N[C@H]1CC[C@H](N2CCC(c3ccccc3OCC(F)(F)F)CC2)CC1)c1ccc2c(c1)OCCO2 [Cpd 14, 2,3-dihydro-benzo[1,4]dioxine-6-sulfonic acid trans-(4-{4-[2-(2,2,2-trifluoro-ethoxy)-phenyl]-piperidin-1-yl}-cyclohexyl)-amide]	8.66			146 °C	7.04	7.59	
COc1ccc(S(=O)(=O)N[C@H]2CC[C@@H](N3CCC(c4ccccc4OCC(F)(F)F)CC3)CC2)cc1OC (as salt: fumarate) [Cpd 5, 3,4-dimethoxy-N-cis-(4-{4-[2-(2,2,2-trifluoro-ethoxy)-phenyl]-piperidin-1-yl}-cyclohexyl)-benzenesulfonamide]				201 °C (dec.)			
